# According to the supplement of paper PMC10627819:
# Tests used:
# Experiment in all cases: fitness (endpoint OD595 vs no drug) (fraction); higher = more growth
# [1] = test system: S. pneumoniae D39V
# Procedure, shortened: (§1)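 Fitness expresses the optical density reached at the stationary-phase transition as a fraction of the robust mean of no-drug control wells. It is capped at 1. Measurements were OD595 every 30 min for 14 h at 37 °C after inoculation of 384-well plates at OD595 0.01 (30 µl, or 55 µl for S. pneumoniae), minus the first reading.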
# [2] = test system: S. aureus DSM 20231
# Procedure, shortened: as §1
# [3] = test system: S. aureus Newman
# Procedure, shortened: as §1
# [4] = first compound 0.001075 µg/mL, partner 1 µg/mL
# [5] = first compound 0.001075 µg/mL, partner 2 µg/mL
# [6] = first compound 0.002 µg/mL, partner 1 µg/mL, one replicate
# [7] = first compound 0.00215 µg/mL, partner 1 µg/mL
# [8] = first compound 0.00215 µg/mL, partner 2 µg/mL
# [9] = first compound 0.004 µg/mL, partner 1 µg/mL, one replicate
# [10] = first compound 0.0043 µg/mL, partner 1 µg/mL
# [11] = first compound 0.0043 µg/mL, partner 2 µg/mL
# [12] = first compound 0.008 µg/mL, partner 1 µg/mL, one replicate
# [13] = first compound 0.0156 µg/mL, partner 1 µg/mL
# [14] = first compound 0.0156 µg/mL, partner 2 µg/mL
# [15] = first compound 0.0156 µg/mL, partner 4 µg/mL
# [16] = first compound 0.0312 µg/mL, partner 1 µg/mL
# [17] = first compound 0.0312 µg/mL, partner 2 µg/mL
# [18] = first compound 0.0312 µg/mL, partner 4 µg/mL
# [19] = first compound 0.0625 µg/mL, partner 1 µg/mL
# [20] = first compound 0.0625 µg/mL, partner 2 µg/mL
# [21] = first compound 0.0625 µg/mL, partner 4 µg/mL
# [22] = first compound 0.0156 µg/mL, partner 0.5 µg/mL, one replicate
# [23] = first compound 0.0156 µg/mL, partner 1 µg/mL, one replicate
# [24] = first compound 0.0312 µg/mL, partner 0.5 µg/mL, one replicate
# [25] = first compound 0.0312 µg/mL, partner 1 µg/mL, one replicate
# [26] = first compound 0.0625 µg/mL, partner 0.5 µg/mL, one replicate
# [27] = first compound 0.0625 µg/mL, partner 1 µg/mL, one replicate
# [28] = first compound 0.0156 µg/mL, partner 0.0075 µg/mL
# [29] = first compound 0.0312 µg/mL, partner 0.0075 µg/mL
# [30] = first compound 0.0312 µg/mL, partner 0.03 µg/mL
# [31] = first compound 0.0625 µg/mL, partner 0.0075 µg/mL
# [32] = first compound 0.0625 µg/mL, partner 0.03 µg/mL
# 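Note: OD595 on entry to stationary phase over no-drug wells; at most 1.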
compound,measurement,setting,value
CO[C@@]12[C@H](COC(N)=O)C3=C(C(=O)C(C)=C(N)C3=O)N1C[C@@H]1N[C@@H]12 [Mitomycin C] + Cc1cc(NS(=O)(=O)c2ccc(N)cc2)no1 [Sulfamethoxazol],fitness,[1]; [4],0.886
same,fitness,[1]; [5],0.894
same,fitness,"[1]; first compound 0.001075 µg/mL, partner 4 µg/mL",0.921
same,fitness,[1]; [6],0.81
same,fitness,"[1]; first compound 0.002 µg/mL, partner 2 µg/mL, one replicate",0.727
same,fitness,"[1]; first compound 0.002 µg/mL, partner 4 µg/mL, one replicate",0.739
same,fitness,[1]; [7],0.851
same,fitness,[1]; [8],0.873
same,fitness,"[1]; first compound 0.00215 µg/mL, partner 4 µg/mL",0.913
same,fitness,[1]; [9],0.724
same,fitness,"[1]; first compound 0.004 µg/mL, partner 2 µg/mL, one replicate",0.686
same,fitness,"[1]; first compound 0.004 µg/mL, partner 4 µg/mL, one replicate",0.7
same,fitness,[1]; [10],0.773
same,fitness,[1]; [11],0.779
same,fitness,"[1]; first compound 0.0043 µg/mL, partner 4 µg/mL",0.787
same,fitness,[1]; [12],0.496
same,fitness,"[1]; first compound 0.008 µg/mL, partner 2 µg/mL, one replicate",0.459
same,fitness,"[1]; first compound 0.008 µg/mL, partner 4 µg/mL, one replicate",0.513
same,fitness,[2]; [13],0.703
same,fitness,[2]; [14],0.686
same,fitness,[2]; [15],0.721
same,fitness,[2]; [16],0.664
same,fitness,[2]; [17],0.689
same,fitness,[2]; [18],0.684
same,fitness,[2]; [19],0.534
same,fitness,[2]; [20],0.558
same,fitness,[2]; [21],0.547
same,fitness,[3]; [13],0.779
same,fitness,[3]; [14],0.777
same,fitness,[3]; [15],0.73
same,fitness,"[3]; first compound 0.0156 µg/mL, partner 8 µg/mL, one replicate",0.993
same,fitness,[3]; [16],0.66
same,fitness,[3]; [17],0.698
same,fitness,[3]; [18],0.622
same,fitness,"[3]; first compound 0.0312 µg/mL, partner 8 µg/mL, one replicate",0.823
same,fitness,[3]; [19],0.546
same,fitness,[3]; [20],0.559
same,fitness,[3]; [21],0.516
same,fitness,"[3]; first compound 0.0625 µg/mL, partner 8 µg/mL, one replicate",0.658
CO[C@@]12[C@H](COC(N)=O)C3=C(C(=O)C(C)=C(N)C3=O)N1C[C@@H]1N[C@@H]12 [Mitomycin C] + CC1=C\[C@@H](O)CC(=O)Cc2nc(co2)C(=O)N2CCC=C2C(=O)O[C@H](C(C)C)[C@H](C)/C=C/C(=O)NC\C=C\1 [Virginiamycin M1],fitness,"[1]; first compound 0.001075 µg/mL, partner 0.5 µg/mL",0.966
same,fitness,[1]; [4],0.929
same,fitness,[1]; [5],0.928
same,fitness,"[1]; first compound 0.002 µg/mL, partner 0.15 µg/mL, one replicate",0.927
same,fitness,"[1]; first compound 0.002 µg/mL, partner 0.3 µg/mL, one replicate",0.894
same,fitness,"[1]; first compound 0.002 µg/mL, partner 0.5 µg/mL, one replicate",0.936
same,fitness,[1]; [6],0.878
same,fitness,"[1]; first compound 0.002 µg/mL, partner 2 µg/mL",0.808
same,fitness,"[1]; first compound 0.00215 µg/mL, partner 0.5 µg/mL",0.945
same,fitness,[1]; [7],0.947
same,fitness,[1]; [8],0.905
same,fitness,"[1]; first compound 0.004 µg/mL, partner 0.15 µg/mL, one replicate",0.849
same,fitness,"[1]; first compound 0.004 µg/mL, partner 0.3 µg/mL, one replicate",0.823
same,fitness,"[1]; first compound 0.004 µg/mL, partner 0.5 µg/mL, one replicate",0.887
same,fitness,[1]; [9],0.854
same,fitness,"[1]; first compound 0.004 µg/mL, partner 2 µg/mL",0.783
same,fitness,"[1]; first compound 0.0043 µg/mL, partner 0.5 µg/mL",0.856
same,fitness,[1]; [10],0.839
same,fitness,[1]; [11],0.835
same,fitness,"[1]; first compound 0.008 µg/mL, partner 0.15 µg/mL, one replicate",0.791
same,fitness,"[1]; first compound 0.008 µg/mL, partner 0.3 µg/mL, one replicate",0.799
same,fitness,"[1]; first compound 0.008 µg/mL, partner 0.5 µg/mL, one replicate",0.767
same,fitness,[1]; [12],0.626
same,fitness,"[1]; first compound 0.008 µg/mL, partner 2 µg/mL",0.682
same,fitness,"[2]; first compound 0.0156 µg/mL, partner 0.0625 µg/mL",0.697
same,fitness,"[2]; first compound 0.0156 µg/mL, partner 0.125 µg/mL",0.712
same,fitness,"[2]; first compound 0.0156 µg/mL, partner 0.25 µg/mL",0.747
same,fitness,[2]; [22],0.774
same,fitness,[2]; [23],0.825
same,fitness,"[2]; first compound 0.0312 µg/mL, partner 0.0625 µg/mL",0.676
same,fitness,"[2]; first compound 0.0312 µg/mL, partner 0.125 µg/mL",0.719
same,fitness,"[2]; first compound 0.0312 µg/mL, partner 0.25 µg/mL",0.714
same,fitness,[2]; [24],0.681
same,fitness,[2]; [25],0.701
same,fitness,"[2]; first compound 0.0625 µg/mL, partner 0.0625 µg/mL",0.576
same,fitness,"[2]; first compound 0.0625 µg/mL, partner 0.125 µg/mL",0.579
same,fitness,"[2]; first compound 0.0625 µg/mL, partner 0.25 µg/mL",0.578
same,fitness,[2]; [26],0.515
same,fitness,[2]; [27],0.611
same,fitness,"[3]; first compound 0.0156 µg/mL, partner 0.0625 µg/mL, one replicate",0.71
same,fitness,"[3]; first compound 0.0156 µg/mL, partner 0.125 µg/mL, one replicate",0.702
same,fitness,"[3]; first compound 0.0156 µg/mL, partner 0.25 µg/mL, one replicate",0.681
same,fitness,[3]; [22],0.66
same,fitness,[3]; [23],0.667
same,fitness,"[3]; first compound 0.0156 µg/mL, partner 2 µg/mL, one replicate",0.593
same,fitness,"[3]; first compound 0.0312 µg/mL, partner 0.0625 µg/mL, one replicate",0.683
same,fitness,"[3]; first compound 0.0312 µg/mL, partner 0.125 µg/mL, one replicate",0.662
same,fitness,"[3]; first compound 0.0312 µg/mL, partner 0.25 µg/mL, one replicate",0.761
same,fitness,[3]; [24],0.657
same,fitness,[3]; [25],0.602
same,fitness,"[3]; first compound 0.0312 µg/mL, partner 2 µg/mL, one replicate",0.544
same,fitness,"[3]; first compound 0.0625 µg/mL, partner 0.0625 µg/mL, one replicate",0.564
same,fitness,"[3]; first compound 0.0625 µg/mL, partner 0.125 µg/mL, one replicate",0.597
same,fitness,"[3]; first compound 0.0625 µg/mL, partner 0.25 µg/mL, one replicate",0.583
same,fitness,[3]; [26],0.564
same,fitness,[3]; [27],0.54
same,fitness,"[3]; first compound 0.0625 µg/mL, partner 2 µg/mL, one replicate",0.433
CO[C@@]12[C@H](COC(N)=O)C3=C(C(=O)C(C)=C(N)C3=O)N1C[C@@H]1N[C@@H]12 [Mitomycin C] + COc1c(N2C[C@@H]3CCCN[C@@H]3C2)c(F)cc2c(=O)c(C(=O)O)cn(C3CC3)c12 [Moxifloxacin],fitness,"[1]; first compound 0.001075 µg/mL, partner 0.0037 µg/mL",0.878
same,fitness,"[1]; first compound 0.001075 µg/mL, partner 0.0075 µg/mL",0.902
same,fitness,"[1]; first compound 0.001075 µg/mL, partner 0.015 µg/mL",0.869
same,fitness,"[1]; first compound 0.002 µg/mL, partner 0.005 µg/mL",0.895
same,fitness,"[1]; first compound 0.002 µg/mL, partner 0.01 µg/mL",0.902
same,fitness,"[1]; first compound 0.002 µg/mL, partner 0.02 µg/mL",0.769
same,fitness,"[1]; first compound 0.00215 µg/mL, partner 0.0037 µg/mL",0.846
same,fitness,"[1]; first compound 0.00215 µg/mL, partner 0.0075 µg/mL",0.805
same,fitness,"[1]; first compound 0.00215 µg/mL, partner 0.015 µg/mL",0.813
same,fitness,"[1]; first compound 0.004 µg/mL, partner 0.005 µg/mL",0.838
same,fitness,"[1]; first compound 0.004 µg/mL, partner 0.01 µg/mL",0.807
same,fitness,"[1]; first compound 0.004 µg/mL, partner 0.02 µg/mL",0.727
same,fitness,"[1]; first compound 0.0043 µg/mL, partner 0.0037 µg/mL",0.665
same,fitness,"[1]; first compound 0.0043 µg/mL, partner 0.0075 µg/mL",0.691
same,fitness,"[1]; first compound 0.0043 µg/mL, partner 0.015 µg/mL",0.666
same,fitness,"[1]; first compound 0.008 µg/mL, partner 0.005 µg/mL",0.673
same,fitness,"[1]; first compound 0.008 µg/mL, partner 0.01 µg/mL",0.72
same,fitness,"[1]; first compound 0.008 µg/mL, partner 0.02 µg/mL",0.637
same,fitness,[2]; [28],0.677
same,fitness,"[2]; first compound 0.0156 µg/mL, partner 0.015 µg/mL",0.675
same,fitness,"[2]; first compound 0.0156 µg/mL, partner 0.03 µg/mL",0.543
same,fitness,"[2]; first compound 0.0156 µg/mL, partner 0.06 µg/mL, one replicate",0.674
same,fitness,"[2]; first compound 0.0156 µg/mL, partner 0.12 µg/mL, one replicate",0.413
same,fitness,[2]; [29],0.703
same,fitness,"[2]; first compound 0.0312 µg/mL, partner 0.015 µg/mL",0.624
same,fitness,[2]; [30],0.506
same,fitness,"[2]; first compound 0.0312 µg/mL, partner 0.06 µg/mL, one replicate",0.603
same,fitness,"[2]; first compound 0.0312 µg/mL, partner 0.12 µg/mL, one replicate",0.302
same,fitness,[2]; [31],0.557
same,fitness,"[2]; first compound 0.0625 µg/mL, partner 0.015 µg/mL",0.504
same,fitness,[2]; [32],0.371
same,fitness,"[2]; first compound 0.0625 µg/mL, partner 0.06 µg/mL, one replicate",0.512
same,fitness,"[2]; first compound 0.0625 µg/mL, partner 0.12 µg/mL, one replicate",0.198
same,fitness,[3]; [28],0.63
same,fitness,[3]; [29],0.59
same,fitness,[3]; [30],0.0632
same,fitness,[3]; [31],0.32
same,fitness,[3]; [32],0.0334
